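Where inhibition never reached the appropriate level, the endpoint shown equals the highest concentration tested. Otherwise, values were interpolated linearly from a five-concentration, 48-hour dose response in 96-well plates. Here, GI50 denotes the concentration required for 50% inhibition of growth.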 Activity calls are given as the source filed them. Cut-off read from the data, not from the text of the source: active = GI50 up to about 1.1 µM and inactive = higher.
Experiments:
Experiment in all cases: inhibition of tumour cell growth, NCI panel, 48 h
[1] = tested on: NCI/ADR-RES
[2] = tested on: UACC-62
[3] = tested on: LOX IMVI
[4] = tested on: SK-MEL-28
[5] = tested on: UACC-257
[6] = tested on: TK-10
[7] = tested on: OVCAR-4
[8] = tested on: HT-29
[9] = tested on: CAKI-1
[10] = tested on: SF-268
[11] = tested on: A549
[12] = tested on: SF-539
[13] = tested on: UO-31
[14] = tested on: IGROV-1
[15] = tested on: RXF 393
[16] = tested on: HOP-92
[17] = tested on: HCC 2998
[18] = tested on: SN12C
[19] = tested on: NCI-H522
[20] = tested on: HOP-62

| Compound | GI50 [1] | GI50 [2] | GI50 [3] | GI50 [4] | GI50 [5] | GI50 [6] | GI50 [7] | GI50 [8] | GI50 [9] | GI50 [10] | GI50 [11] | GI50 [12] | GI50 [13] | GI50 [14] | GI50 [15] | GI50 [16] | GI50 [17] | GI50 [18] | GI50 [19] | GI50 [20] |
| --- | --- | --- | --- | --- | --- | --- | --- | --- | --- | --- | --- | --- | --- | --- | --- | --- | --- | --- | --- | --- |
| COC1C(O)CC(OC2CC(Oc3cc4cc5c(c(O)c4c(O)c3C)C(=O)[C@@H](OC3CC(OC4CC(OC6CC(C)(O)C(OC(C)=O)C(C)O6)C(O)C(C)O4)C(O)C(C)O3)[C@H]([C@H](OC)C(=O)[C@@H](O)[C@@H](C)O)C5)OC(C)C2OC(C)=O)OC1C (some centres undefined) [CHROMOMYCIN] | 0.75 µM (active) | 0.00295 µM (active) | 0.00348 µM (active) | 0.00368 µM (active) | < 0.01 µM (active) | 0.000119 µM (active) | < 0.01 µM (active) | < 0.01 µM (active) | < 0.01 µM (active) | 0.00357 µM (active) | 0.00382 µM (active) | 0.00326 µM (active) | 0.0614 µM (active) | 0.0101 µM (active) | 0.00311 µM (active) | < 0.01 µM (active) | < 0.01 µM (active) | 0.0101 µM (active) | 0.00366 µM (active) | 0.00355 µM (active) |
| CCOC(=O)C(O)(NC(=O)c1ccc(F)cc1)C(F)(F)F (centres undefined) | > 100 µM (inactive) | > 100 µM (inactive) | > 100 µM (inactive) | > 100 µM (inactive) | > 100 µM (inactive) | > 100 µM (inactive) | > 100 µM (inactive) | > 100 µM (inactive) | > 100 µM (inactive) | > 100 µM (inactive) | > 100 µM (inactive) | > 100 µM (inactive) | > 100 µM (inactive) | 57 µM (inactive) | > 100 µM (inactive) | > 100 µM (inactive) | > 100 µM (inactive) | > 100 µM (inactive) | > 100 µM (inactive) | > 100 µM (inactive) |
| Cc1c2c(cc3c1[nH]c1ccccc13)C(c1ccc(F)cc1)=NCC2 | 0.774 µM (active) | 0.935 µM (active) | 0.509 µM (active) | 1.48 µM (inactive) | 1.03 µM (active) |  | 0.703 µM (active) | 1.17 µM (inactive) | 0.796 µM (active) | 2.18 µM (inactive) | 1.48 µM (inactive) | 1.13 µM (inactive) | 1.08 µM (active) | 0.855 µM (active) | 1.42 µM (inactive) | 1.44 µM (inactive) | 1.04 µM (active) | 1.63 µM (inactive) | 1.08 µM (active) | 2.05 µM (inactive) |

— ChEMBL document CHEMBL1201862, “PubChem BioAssay data set” (2004)
